Assay results reported in the supplement of paper PMC10307832.

Key:
Assay in all cases: relative viability (nuclei count vs DMSO), 5 days (fraction); higher = more cells survive
BEN = test system: BEN
Summary of the method: (§1)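 Five library-drug doses in √10 steps were combined with a fixed anchor-drug dose, or a single drug was given alone, by pin tool to lung cancer cell lines in 1536-well plates the day after seeding. Nuclei were stained and counted after 5 days. Relative viability is the nuclei count in treated wells over that in vehicle wells, taken as the median of duplicate plates.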

NCI-H1355 = test system: NCI-H1355
Summary of the method: as §1

LCLC-97TM1 = test system: LCLC-97TM1
Summary of the method: as §1

LU99A = test system: LU99A
Summary of the method: as §1

NCI-H661 = test system: NCI-H661
Summary of the method: as §1

NCI-H460 = test system: NCI-H460
Summary of the method: as §1

HCC-78 = test system: HCC-78
Summary of the method: as §1

NCI-H322M = test system: NCI-H322M
Summary of the method: as §1

NCI-H2342 = test system: NCI-H2342
Summary of the method: as §1

NCI-H2126 = test system: NCI-H2126
Summary of the method: as §1

HCC-15 = test system: HCC-15
Summary of the method: as §1

NCI-H2228 = test system: NCI-H2228
Summary of the method: as §1

Cc1csc(=NC2CCCCC2)n1/N=C/c1ccc(O)c(O)c1O [MIM1] + O=C(c1cc(Cc2n[nH]c(=O)c3ccccc23)ccc1F)N1CCN(C(=O)C2CC2)CC1 [Olaparib] (partner 8 µM)
relative viability (BEN; first compound 0.2 µM): 1.07 | relative viability (BEN; first compound 0.6325 µM): 1.18 | relative viability (BEN; first compound 2 µM): 1.09 | relative viability (BEN; first compound 6.325 µM): 1.01 | relative viability (BEN; first compound 20 µM): 0.239 | relative viability (NCI-H1355; first compound 0.2 µM): 0.731 | relative viability (NCI-H1355; first compound 0.6325 µM): 0.664 | relative viability (NCI-H1355; first compound 2 µM): 0.803 | relative viability (NCI-H1355; first compound 6.325 µM): 0.603 | relative viability (NCI-H1355; first compound 20 µM): 0.297 | relative viability (LCLC-97TM1; first compound 0.2 µM): 0.436 | relative viability (LCLC-97TM1; first compound 0.6325 µM): 0.46 | relative viability (LCLC-97TM1; first compound 2 µM): 0.343 | relative viability (LCLC-97TM1; first compound 6.325 µM): 0.24 | relative viability (LCLC-97TM1; first compound 20 µM): 0.0564 | relative viability (LU99A; first compound 0.2 µM): 0.298 | relative viability (LU99A; first compound 0.6325 µM): 0.246 | relative viability (LU99A; first compound 2 µM): 0.207 | relative viability (LU99A; first compound 6.325 µM): 0.272 | relative viability (LU99A; first compound 20 µM): 0.125 | relative viability (NCI-H661; first compound 0.2 µM): 0.696 | relative viability (NCI-H661; first compound 0.6325 µM): 0.715 | relative viability (NCI-H661; first compound 2 µM): 0.778 | relative viability (NCI-H661; first compound 6.325 µM): 0.499 | relative viability (NCI-H661; first compound 20 µM): 0.316 | relative viability (NCI-H460; first compound 0.2 µM): 0.403 | relative viability (NCI-H460; first compound 0.6325 µM): 0.411 | relative viability (NCI-H460; first compound 2 µM): 0.195 | relative viability (NCI-H460; first compound 6.325 µM): 0.213 | relative viability (NCI-H460; first compound 20 µM): 0.0637 | relative viability (HCC-78; first compound 0.2 µM): 0.716 | relative viability (HCC-78; first compound 2 µM): 0.906 | relative viability (HCC-78; first compound 6.325 µM): 0.47 | relative viability (HCC-78; first compound 20 µM): 0.462 | relative viability (NCI-H322M; first compound 0.2 µM): 0.742 | relative viability (NCI-H322M; first compound 0.6325 µM): 0.683 | relative viability (NCI-H322M; first compound 2 µM): 0.72 | relative viability (NCI-H322M; first compound 6.325 µM): 0.746 | relative viability (NCI-H322M; first compound 20 µM): 0.367 | relative viability (NCI-H2342; first compound 0.2 µM): 0.432 | relative viability (NCI-H2342; first compound 0.6325 µM): 0.386 | relative viability (NCI-H2342; first compound 2 µM): 0.42 | relative viability (NCI-H2342; first compound 6.325 µM): 0.395 | relative viability (NCI-H2342; first compound 20 µM): 0.571 | relative viability (NCI-H2126; first compound 0.2 µM): 0.936 | relative viability (NCI-H2126; first compound 0.6325 µM): 0.879 | relative viability (NCI-H2126; first compound 2 µM): 0.916 | relative viability (NCI-H2126; first compound 6.325 µM): 0.849 | relative viability (NCI-H2126; first compound 20 µM): 0.401 | relative viability (HCC-15; first compound 0.2 µM): 0.717 | relative viability (HCC-15; first compound 0.6325 µM): 0.713 | relative viability (HCC-15; first compound 2 µM): 0.749 | relative viability (HCC-15; first compound 6.325 µM): 0.39 | relative viability (HCC-15; first compound 20 µM): 0.115 | relative viability (NCI-H2228; first compound 0.2 µM): 0.719 | relative viability (NCI-H2228; first compound 0.6325 µM): 0.719 | relative viability (NCI-H2228; first compound 2 µM): 0.861
